Legend:
Format in all cases: functional, cell-based
[1] = molecular target: ATP-dependent translocase ABCB1 (Mus musculus, UniProt P06795); assay: TP_TRANSPORTER: uptake, not inhibited by Verapamil in MBEC4 cell
[2] = molecular target: ATP-dependent translocase ABCB1 (Mus musculus, UniProt P21447); assay: TP_TRANSPORTER: uptake in L cell and LV500 cell
[3] = molecular target: ATP-dependent translocase ABCB1 (Homo sapiens, UniProt P08183); assay: TP_TRANSPORTER: uptake in LLC-PK1 cell and LLC-GA5-COL300 cells; conditions: pig
Sequence of ATP-dependent translocase ABCB1 (Homo sapiens, UniProt P08183) (P08183 whole entry): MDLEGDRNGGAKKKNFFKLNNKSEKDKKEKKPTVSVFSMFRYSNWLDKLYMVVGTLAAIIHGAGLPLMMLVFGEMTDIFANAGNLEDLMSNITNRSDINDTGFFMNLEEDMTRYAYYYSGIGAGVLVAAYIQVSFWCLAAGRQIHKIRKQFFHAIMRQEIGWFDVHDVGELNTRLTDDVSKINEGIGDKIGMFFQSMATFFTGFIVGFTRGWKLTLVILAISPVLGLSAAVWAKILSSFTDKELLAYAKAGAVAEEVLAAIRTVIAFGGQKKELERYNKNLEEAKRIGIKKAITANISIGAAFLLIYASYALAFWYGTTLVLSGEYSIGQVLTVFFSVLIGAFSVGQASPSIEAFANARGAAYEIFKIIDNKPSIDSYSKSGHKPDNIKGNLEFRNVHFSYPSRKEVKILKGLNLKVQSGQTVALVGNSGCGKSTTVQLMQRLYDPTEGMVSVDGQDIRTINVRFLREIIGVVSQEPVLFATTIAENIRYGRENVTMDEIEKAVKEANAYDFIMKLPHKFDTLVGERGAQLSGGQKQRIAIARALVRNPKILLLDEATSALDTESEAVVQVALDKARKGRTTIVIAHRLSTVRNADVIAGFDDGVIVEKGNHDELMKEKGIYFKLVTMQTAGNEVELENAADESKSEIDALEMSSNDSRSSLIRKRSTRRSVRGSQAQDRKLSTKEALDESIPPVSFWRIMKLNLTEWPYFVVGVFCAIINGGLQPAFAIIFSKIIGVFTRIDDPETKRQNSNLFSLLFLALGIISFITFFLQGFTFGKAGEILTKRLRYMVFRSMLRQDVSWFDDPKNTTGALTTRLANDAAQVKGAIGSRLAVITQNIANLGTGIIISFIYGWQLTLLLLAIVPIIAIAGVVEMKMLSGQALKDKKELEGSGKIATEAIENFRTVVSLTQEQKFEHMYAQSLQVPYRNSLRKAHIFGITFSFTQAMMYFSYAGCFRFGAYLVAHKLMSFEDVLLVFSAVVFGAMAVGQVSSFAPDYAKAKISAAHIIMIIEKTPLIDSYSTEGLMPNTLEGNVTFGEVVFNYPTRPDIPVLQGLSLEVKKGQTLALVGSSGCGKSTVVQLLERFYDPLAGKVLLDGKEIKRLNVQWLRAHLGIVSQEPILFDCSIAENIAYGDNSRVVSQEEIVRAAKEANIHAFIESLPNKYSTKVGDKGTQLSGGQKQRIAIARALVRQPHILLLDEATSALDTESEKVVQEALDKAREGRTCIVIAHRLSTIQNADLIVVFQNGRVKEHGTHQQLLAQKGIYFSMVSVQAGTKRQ

Sequence of ATP-dependent translocase ABCB1 (Mus musculus, UniProt P21447) (P21447 whole entry): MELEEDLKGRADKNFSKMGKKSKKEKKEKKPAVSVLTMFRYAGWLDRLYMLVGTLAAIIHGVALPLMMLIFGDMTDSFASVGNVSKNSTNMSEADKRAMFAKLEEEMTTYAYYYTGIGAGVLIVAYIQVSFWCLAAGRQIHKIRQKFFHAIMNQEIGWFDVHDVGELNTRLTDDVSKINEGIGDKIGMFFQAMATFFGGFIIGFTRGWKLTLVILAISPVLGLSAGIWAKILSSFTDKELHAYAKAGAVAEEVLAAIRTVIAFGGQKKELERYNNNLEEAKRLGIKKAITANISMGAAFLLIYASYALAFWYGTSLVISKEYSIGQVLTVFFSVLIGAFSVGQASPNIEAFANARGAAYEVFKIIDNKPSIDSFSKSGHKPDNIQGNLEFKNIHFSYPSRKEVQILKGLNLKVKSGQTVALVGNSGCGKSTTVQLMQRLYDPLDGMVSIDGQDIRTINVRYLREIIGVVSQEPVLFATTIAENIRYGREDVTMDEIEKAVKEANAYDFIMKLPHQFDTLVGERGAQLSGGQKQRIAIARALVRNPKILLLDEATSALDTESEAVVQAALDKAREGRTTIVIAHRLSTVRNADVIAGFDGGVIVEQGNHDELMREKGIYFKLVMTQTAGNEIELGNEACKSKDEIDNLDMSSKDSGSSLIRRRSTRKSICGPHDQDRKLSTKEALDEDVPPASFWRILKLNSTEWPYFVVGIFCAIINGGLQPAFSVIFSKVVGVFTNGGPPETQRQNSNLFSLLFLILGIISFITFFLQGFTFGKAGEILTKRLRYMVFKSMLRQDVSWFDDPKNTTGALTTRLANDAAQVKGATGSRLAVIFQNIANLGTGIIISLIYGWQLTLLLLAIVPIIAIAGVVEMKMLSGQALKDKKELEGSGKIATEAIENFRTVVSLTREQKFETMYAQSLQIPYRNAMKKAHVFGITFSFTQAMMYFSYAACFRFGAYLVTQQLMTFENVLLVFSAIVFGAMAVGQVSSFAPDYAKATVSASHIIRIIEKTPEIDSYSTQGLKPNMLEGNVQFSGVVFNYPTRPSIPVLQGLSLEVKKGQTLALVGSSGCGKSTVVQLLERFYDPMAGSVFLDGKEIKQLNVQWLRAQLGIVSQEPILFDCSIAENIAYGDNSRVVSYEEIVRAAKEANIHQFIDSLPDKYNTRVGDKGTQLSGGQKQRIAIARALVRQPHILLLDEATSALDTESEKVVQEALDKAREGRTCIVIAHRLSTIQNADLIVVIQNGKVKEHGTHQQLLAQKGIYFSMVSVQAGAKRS
Sequence of ATP-dependent translocase ABCB1 (Mus musculus, UniProt P06795) (P06795 whole entry): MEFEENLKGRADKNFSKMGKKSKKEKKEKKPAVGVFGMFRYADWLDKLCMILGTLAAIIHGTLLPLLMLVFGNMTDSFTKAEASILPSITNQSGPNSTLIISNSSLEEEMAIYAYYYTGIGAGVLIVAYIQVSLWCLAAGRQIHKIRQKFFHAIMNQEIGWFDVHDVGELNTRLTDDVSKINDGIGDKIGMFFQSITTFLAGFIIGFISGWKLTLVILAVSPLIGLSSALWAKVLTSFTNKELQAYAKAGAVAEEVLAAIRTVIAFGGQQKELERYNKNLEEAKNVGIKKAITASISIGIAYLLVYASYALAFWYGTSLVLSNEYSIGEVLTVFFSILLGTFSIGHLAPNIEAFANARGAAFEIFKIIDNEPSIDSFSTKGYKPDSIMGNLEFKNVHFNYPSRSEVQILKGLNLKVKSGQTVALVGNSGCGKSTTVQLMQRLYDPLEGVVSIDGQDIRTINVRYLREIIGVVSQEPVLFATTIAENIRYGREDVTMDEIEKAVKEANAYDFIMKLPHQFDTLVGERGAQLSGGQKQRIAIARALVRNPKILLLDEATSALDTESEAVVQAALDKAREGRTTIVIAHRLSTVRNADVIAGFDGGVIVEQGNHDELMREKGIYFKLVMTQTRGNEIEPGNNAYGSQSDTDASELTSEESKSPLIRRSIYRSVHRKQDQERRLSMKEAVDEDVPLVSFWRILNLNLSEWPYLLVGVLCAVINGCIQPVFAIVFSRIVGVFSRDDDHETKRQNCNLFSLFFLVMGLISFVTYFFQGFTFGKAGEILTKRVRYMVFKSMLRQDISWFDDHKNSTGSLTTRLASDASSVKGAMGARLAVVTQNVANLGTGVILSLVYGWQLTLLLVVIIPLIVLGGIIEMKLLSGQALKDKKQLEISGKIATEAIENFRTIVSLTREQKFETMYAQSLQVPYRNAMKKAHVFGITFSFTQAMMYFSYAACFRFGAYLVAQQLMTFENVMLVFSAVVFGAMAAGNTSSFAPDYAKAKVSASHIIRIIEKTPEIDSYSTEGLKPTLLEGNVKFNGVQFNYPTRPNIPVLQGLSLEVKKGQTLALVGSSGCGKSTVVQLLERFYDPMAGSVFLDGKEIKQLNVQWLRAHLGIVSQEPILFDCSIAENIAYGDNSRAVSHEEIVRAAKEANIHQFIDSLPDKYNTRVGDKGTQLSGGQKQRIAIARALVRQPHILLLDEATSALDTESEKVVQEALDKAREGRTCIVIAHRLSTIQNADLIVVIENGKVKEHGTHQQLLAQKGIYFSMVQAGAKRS

Which results are given for `Cn1cc(C(=O)[C@@H]2CCc3nc[nH]c3C2)c2ccccc21` [RAMOSETRON]?
Activity [1]: is not a substrate [-]; Activity [2]: substrate [+]; Activity [3]: substrate [+]

Source: ChEMBL document CHEMBL2074446, “Contribution of P-glycoprotein to efflux of ramosetron, a 5-HT3 receptor antagonist, across the blood-brain barrier” (J Pharm Pharmacol, 2002)
